Laboratory results: US6274715A, “Tricyclic erythromycin derivatives” (priority 1997, dated 2001)

What was measured:
Assay type in all cases: cell-based
[1] = tested on: STREPTOCOCCUS BOVIS A-5169; experiment: In vitro antibacterial activity, MIC, BHI agar dilution; details: S. bovis A-5169, unit assumed
[2] = tested on: STREPTOCOCCUS PYOGENES EES61; experiment: as above; details: S. pyogenes EES61, unit assumed
[3] = tested on: PSEUDOMONAS AERUGINOSA DPHD-5263; experiment: as above; details: P. aeruginosa DPHD-5263, unit assumed
[4] = tested on: PSEUDOMONAS AERUGINOSA BMH10; experiment: as above; details: P. aeruginosa BMH10, unit assumed
[5] = tested on: STAPHYLOCOCCUS AUREUS CMX 553; experiment: as above; details: S. aureus CMX 553, unit assumed
[6] = tested on: PROVIDENCIA STUARTII CMX 640; details: P. stuartii CMX 640; BHI agar; unit assumed
[7] = tested on: STAPHYLOCOCCUS AUREUS 1775; experiment: In vitro antibacterial activity, MIC, BHI agar dilution; details: S. aureus 1775, unit assumed
[8] = tested on: STREPTOCOCCUS PYOGENES PIU 2548; experiment: as above; details: S. pyogenes PIU 2548, unit assumed
[9] = tested on: PSEUDOMONAS AERUGINOSA 5007; experiment: as above; details: P. aeruginosa 5007, unit assumed
[10] = tested on: STAPHYLOCOCCUS AUREUS CMX 642A; experiment: as above; details: S. aureus CMX 642A, unit assumed
[11] = tested on: PSEUDOMONAS AERUGINOSA K799/WT; experiment: as above; details: P. aeruginosa K799/WT, unit assumed
[12] = tested on: STAPHYLOCOCCUS AUREUS A-5278; experiment: as above; details: S. aureus A-5278, unit assumed
[13] = tested on: CANDIDA ALBICANS CCH 442; experiment: as above; details: C. albicans CCH 442, unit assumed
[14] = tested on: PSEUDOMONAS CEPACIA 296I; experiment: as above; details: P. cepacia 296I, unit assumed
[15] = tested on: ESCHERICHIA COLI KNK 437; details: E. coli KNK 437; BHI agar; unit assumed
[16] = tested on: ESCHERICHIA COLI JUHL; details: E. coli JUHL; BHI agar; unit assumed
[17] = tested on: ESCHERICHIA COLI H560; experiment: In vitro antibacterial activity, MIC, BHI agar dilution; details: E. coli H560, unit assumed
[18] = tested on: PSEUDOMONAS AERUGINOSA K799/61; experiment: as above; details: P. aeruginosa K799/61, unit assumed
[19] = tested on: KLEBSIELLA PNEUMONIAE ATCC 8045; experiment: as above; details: K. pneumoniae ATCC 8045, unit assumed
[20] = tested on: ESCHERICHIA COLI SS; experiment: as above; details: E. coli SS, unit assumed
[21] = tested on: ESCHERICHIA COLI DC-2; experiment: as above; details: E. coli DC-2, unit assumed
[22] = tested on: PSEUDOMONAS AERUGINOSA DPHD-2862; experiment: as above; details: P. aeruginosa DPHD-2862, unit assumed
[23] = tested on: EN[…] ATCC 8043; experiment: as above; details: E. faecium ATCC 8043, unit assumed
Method in brief: (§1)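 Agar dilution in BHI: plates inoculated with 1:100 dilutions of organisms (1:10 for Micrococcus and Streptococcus), incubated 20-24 h at 35-37° C, then inspected for the lowest inhibitory concentration against a drug-free growth control.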

[24] = tested on: STR[…] 508; experiment: as above; details: S. agalactiae CMX 508, unit assumed
Method in brief: as §1

[25] = tested on: M[…] ATCC 4698; experiment: as above; details: M. luteus ATCC 4698, unit assumed
Method in brief: as §1

[26] = tested on: M[…] ATCC 9341; experiment: as above; details: M. luteus ATCC 9341, unit assumed
Method in brief: as §1

[27] = tested on: STAPHYLOCOCCUS EPIDERMIDIS 3519; details: S. epidermidis 3519; BHI agar; unit assumed
[28] = tested on: STREPTOCOCCUS PYOGENES 930; experiment: In vitro antibacterial activity, MIC, BHI agar dilution; details: S. pyogenes 930, unit assumed
[29] = tested on: STAPHYLOCOCCUS AUREUS A5177; experiment: as above; details: S. aureus A5177, unit assumed
[30] = tested on: MYCOBACTERIUM SMEGMATIS ATCC 114; experiment: as above; details: M. smegmatis ATCC 114, unit assumed
[31] = tested on: ENTEROBACTER AEROGENES ATCC 13048; experiment: as above; details: E. aerogenes ATCC 13048, unit assumed
[32] = tested on: STAPHYLOCOCCUS AUREUS NCTC10649M; experiment: as above; details: S. aureus NCTC10649M, unit assumed
[33] = tested on: STAPHYLOCOCCUS AUREUS ATCC 6538P; experiment: as above; details: S. aureus ATCC 6538P, 35-37° C., 20 to 24 hours, unit assumed

Measured: MIC

CC[C@H]1OC(=O)[C@H](C)C(=O)[C@H](C)[C@@H](O[C@@H]2O[C@H](C)C[C@H](N(C)C)[C@H]2O)[C@](C)(OC)C[C@@H](C)C2=NC3CN(Cc4ccccc4)CC3N3C(=O)O[C@@]1(C)[C@H]3[C@H]2C (stereo partly shown) [Example 110]
0.39 µg/mL: [10]
50 µg/mL: [4] | [14] | [15] | [16] | [28]
12.5 µg/mL: [17]
0.78 µg/mL: [25]
0.05 µg/mL: [23] | [26]
25 µg/mL: [21]
0.2 µg/mL: [5] | [8] | [20] | [27] | [29]
1.56 µg/mL: [18]
0.005 µg/mL: [2]
0.02 µg/mL: [1] | [24]
not listed: [30] | [31] | [32] | [33]
> 100 µg/mL: all other assays above

CCOC(=O)CCN1CC2N=C3C(C)CC(C)(OC)C(OC4OC(C)CC(N(C)C)C4O)C(C)C(=O)C(C)C(=O)OC(CC)C4(C)OC(=O)N(C2C1)C4C3C (stereo not shown) [Example 130]
3.1 µg/mL: [18] | [27]
0.2 µg/mL: [23] | [26]
1.56 µg/mL: [5] | [10]
0.1 µg/mL: [1] | [2] | [24]
6.2 µg/mL: [8]
25 µg/mL: [30]
0.78 µg/mL: [20] | [25] | [29]
not listed: [32] | [33]
> 100 µg/mL: all other assays above

CC[C@H]1OC(=O)[C@H](C)C(=O)[C@H](C)[C@@H](O[C@@H]2O[C@H](C)C[C@H](N(C)C)[C@H]2O)[C@](C)(OC)C[C@@H](C)C2=NCC(COC(=O)c3ccnc4ccccc34)N3C(=O)O[C@@]1(C)[C@H]3[C@H]2C (stereo partly shown) [Example 137]
50 µg/mL: [11] | [14] | [22]
0.02 µg/mL: [20] | [33] | [29]
12.5 µg/mL: [17] | [21]
25 µg/mL: [15] | [16]
0.01 µg/mL: [2] | [23] | [26]
0.05 µg/mL: [32] | [5] | [10] | [27]
0.2 µg/mL: [30] | [8] | [18] | [25]
> 100 µg/mL: [7] | [12] | [13]
6.2 µg/mL: [28]
not listed: [1] | [24]
100 µg/mL: all other assays above
